Calls of active or inactive are those of the source. For most assays here, no stated cut-off is given here; in the data, actives have a measured Kd and inactives only a lower limit.
Experiments:
[1] = target: Chromodomain-helicase-DNA-binding protein 4 (Homo sapiens, UniProt Q14839)
[2] = target: T1, ATP-dependent RNA helicase DDX1 (Homo sapiens, UniProt Q92499)
T1 sequence (Q92499 whole entry): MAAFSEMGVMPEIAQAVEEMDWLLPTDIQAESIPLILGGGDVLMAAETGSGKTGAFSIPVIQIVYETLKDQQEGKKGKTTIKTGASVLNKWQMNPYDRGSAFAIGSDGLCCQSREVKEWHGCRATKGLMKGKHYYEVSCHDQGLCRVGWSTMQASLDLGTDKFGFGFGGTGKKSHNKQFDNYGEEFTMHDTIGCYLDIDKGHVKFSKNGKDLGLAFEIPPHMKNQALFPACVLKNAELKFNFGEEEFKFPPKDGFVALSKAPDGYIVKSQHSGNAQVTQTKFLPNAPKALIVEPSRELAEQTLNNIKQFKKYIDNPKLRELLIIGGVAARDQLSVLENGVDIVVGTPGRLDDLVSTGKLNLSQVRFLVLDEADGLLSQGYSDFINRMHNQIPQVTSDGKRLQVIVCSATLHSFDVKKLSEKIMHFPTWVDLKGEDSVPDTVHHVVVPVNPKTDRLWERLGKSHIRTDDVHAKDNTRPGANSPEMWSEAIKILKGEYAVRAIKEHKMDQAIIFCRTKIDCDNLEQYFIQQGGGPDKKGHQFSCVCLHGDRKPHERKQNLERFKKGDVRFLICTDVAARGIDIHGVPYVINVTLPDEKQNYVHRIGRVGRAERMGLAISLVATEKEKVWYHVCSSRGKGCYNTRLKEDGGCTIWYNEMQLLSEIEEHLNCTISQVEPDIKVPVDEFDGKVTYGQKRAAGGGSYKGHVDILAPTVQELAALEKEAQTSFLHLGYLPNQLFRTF

[3] = target: Tyrosine-protein kinase Lck (Homo sapiens, UniProt P06239)
[4] = target: T2, Membrane-associated tyrosine- and threonine-specific cdc2-inhibitory kinase (Homo sapiens, UniProt Q99640)
T2 sequence (Q99640 whole entry): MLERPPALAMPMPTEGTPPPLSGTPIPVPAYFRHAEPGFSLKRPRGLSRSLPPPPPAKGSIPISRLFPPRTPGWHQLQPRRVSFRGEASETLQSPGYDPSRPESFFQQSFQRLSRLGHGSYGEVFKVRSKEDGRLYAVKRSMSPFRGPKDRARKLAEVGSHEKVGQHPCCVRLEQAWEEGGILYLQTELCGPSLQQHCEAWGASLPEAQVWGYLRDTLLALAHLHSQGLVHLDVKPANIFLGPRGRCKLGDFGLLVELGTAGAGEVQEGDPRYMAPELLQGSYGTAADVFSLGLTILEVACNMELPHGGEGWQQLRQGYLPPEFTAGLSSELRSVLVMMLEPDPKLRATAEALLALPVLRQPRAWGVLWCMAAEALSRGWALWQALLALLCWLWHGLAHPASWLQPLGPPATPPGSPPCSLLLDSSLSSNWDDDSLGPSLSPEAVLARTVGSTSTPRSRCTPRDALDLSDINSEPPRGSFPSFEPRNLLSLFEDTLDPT

[5] = target: Rho-associated protein kinase 2 (Homo sapiens, UniProt O75116)
[6] = target: T3, Serine/threonine-protein kinase TBK1 (Homo sapiens, UniProt Q9UHD2)
T3 sequence (Q9UHD2 whole entry): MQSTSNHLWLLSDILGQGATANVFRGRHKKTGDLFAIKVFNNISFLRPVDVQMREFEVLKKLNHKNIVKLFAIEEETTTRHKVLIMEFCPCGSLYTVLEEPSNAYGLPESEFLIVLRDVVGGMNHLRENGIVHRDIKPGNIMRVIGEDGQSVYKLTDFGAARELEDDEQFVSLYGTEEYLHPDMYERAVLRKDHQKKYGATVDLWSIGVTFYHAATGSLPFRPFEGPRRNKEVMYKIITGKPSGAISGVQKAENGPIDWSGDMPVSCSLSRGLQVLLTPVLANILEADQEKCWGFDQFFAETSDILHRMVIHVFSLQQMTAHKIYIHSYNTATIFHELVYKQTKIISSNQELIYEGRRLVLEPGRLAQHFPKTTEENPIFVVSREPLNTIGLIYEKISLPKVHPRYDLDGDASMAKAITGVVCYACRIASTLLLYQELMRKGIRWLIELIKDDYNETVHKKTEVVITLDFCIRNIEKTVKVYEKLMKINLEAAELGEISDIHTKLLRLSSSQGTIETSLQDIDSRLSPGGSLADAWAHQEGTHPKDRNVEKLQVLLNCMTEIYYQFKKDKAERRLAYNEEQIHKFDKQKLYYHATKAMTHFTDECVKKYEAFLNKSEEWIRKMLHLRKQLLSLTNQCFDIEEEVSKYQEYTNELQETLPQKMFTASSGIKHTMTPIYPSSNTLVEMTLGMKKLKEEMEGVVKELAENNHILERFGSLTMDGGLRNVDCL

[7] = target: T4, Serine/threonine-protein kinase ULK3 (Homo sapiens, UniProt Q6PHR2)
T4 sequence (Q6PHR2 whole entry): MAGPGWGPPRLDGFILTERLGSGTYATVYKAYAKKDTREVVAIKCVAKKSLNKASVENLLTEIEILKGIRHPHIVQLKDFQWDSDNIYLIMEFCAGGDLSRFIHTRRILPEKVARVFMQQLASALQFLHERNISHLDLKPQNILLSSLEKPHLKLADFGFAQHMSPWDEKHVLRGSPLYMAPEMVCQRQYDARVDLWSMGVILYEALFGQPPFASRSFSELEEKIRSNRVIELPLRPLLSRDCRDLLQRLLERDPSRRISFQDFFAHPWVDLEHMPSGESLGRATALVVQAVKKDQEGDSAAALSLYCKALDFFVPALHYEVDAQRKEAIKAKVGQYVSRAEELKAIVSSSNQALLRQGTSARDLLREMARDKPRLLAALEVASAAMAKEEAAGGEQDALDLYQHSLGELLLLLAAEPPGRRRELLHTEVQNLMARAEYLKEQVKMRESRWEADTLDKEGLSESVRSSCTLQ

Rho-associated protein kinase 2, sequence (O75116 whole entry): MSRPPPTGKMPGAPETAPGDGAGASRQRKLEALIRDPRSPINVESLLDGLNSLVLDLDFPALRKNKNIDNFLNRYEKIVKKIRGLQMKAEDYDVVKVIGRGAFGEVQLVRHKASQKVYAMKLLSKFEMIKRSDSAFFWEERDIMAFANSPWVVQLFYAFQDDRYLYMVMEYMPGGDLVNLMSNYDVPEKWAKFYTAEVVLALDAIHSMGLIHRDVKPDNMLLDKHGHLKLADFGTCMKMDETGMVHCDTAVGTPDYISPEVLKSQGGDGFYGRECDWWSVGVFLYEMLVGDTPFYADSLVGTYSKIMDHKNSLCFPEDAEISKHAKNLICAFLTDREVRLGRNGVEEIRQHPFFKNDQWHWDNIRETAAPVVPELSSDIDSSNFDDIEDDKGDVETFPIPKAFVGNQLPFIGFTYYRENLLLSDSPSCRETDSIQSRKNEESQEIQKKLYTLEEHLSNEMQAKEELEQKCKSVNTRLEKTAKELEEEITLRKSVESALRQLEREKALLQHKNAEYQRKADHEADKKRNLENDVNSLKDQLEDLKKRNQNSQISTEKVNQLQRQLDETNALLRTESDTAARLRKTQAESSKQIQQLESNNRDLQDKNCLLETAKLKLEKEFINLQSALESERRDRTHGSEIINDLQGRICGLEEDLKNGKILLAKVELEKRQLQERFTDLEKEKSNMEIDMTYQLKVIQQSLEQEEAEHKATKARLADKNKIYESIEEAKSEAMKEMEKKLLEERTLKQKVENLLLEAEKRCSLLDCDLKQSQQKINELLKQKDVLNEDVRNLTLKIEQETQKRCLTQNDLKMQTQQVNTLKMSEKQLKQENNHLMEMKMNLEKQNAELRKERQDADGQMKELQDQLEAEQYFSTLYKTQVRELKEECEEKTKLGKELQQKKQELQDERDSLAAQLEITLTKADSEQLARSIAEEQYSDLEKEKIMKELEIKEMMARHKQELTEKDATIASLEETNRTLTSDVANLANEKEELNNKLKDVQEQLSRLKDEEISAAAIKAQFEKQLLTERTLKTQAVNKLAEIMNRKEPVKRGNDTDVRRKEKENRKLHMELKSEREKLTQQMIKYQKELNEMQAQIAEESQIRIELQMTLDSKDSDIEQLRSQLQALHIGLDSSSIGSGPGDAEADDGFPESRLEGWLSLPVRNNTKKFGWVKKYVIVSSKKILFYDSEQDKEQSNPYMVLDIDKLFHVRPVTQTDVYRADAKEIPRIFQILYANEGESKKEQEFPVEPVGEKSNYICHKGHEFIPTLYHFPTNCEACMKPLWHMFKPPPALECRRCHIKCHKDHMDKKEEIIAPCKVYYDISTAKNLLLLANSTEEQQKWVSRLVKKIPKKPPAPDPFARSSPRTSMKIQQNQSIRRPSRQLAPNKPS
Tyrosine-protein kinase Lck, sequence (P06239 whole entry): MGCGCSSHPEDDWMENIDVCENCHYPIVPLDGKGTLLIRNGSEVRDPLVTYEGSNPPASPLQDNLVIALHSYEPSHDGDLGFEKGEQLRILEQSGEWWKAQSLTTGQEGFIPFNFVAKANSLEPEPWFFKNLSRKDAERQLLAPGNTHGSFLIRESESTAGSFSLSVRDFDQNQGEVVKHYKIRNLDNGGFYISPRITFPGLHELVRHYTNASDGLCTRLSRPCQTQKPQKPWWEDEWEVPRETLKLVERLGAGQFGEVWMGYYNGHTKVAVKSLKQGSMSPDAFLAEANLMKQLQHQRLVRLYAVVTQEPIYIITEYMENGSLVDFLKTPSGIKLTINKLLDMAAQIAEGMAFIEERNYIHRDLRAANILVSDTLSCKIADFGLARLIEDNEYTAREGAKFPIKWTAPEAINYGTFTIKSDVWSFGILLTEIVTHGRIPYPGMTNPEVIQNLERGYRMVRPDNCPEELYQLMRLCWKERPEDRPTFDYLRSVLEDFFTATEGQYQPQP
Chromodomain-helicase-DNA-binding protein 4, sequence (Q14839 whole entry): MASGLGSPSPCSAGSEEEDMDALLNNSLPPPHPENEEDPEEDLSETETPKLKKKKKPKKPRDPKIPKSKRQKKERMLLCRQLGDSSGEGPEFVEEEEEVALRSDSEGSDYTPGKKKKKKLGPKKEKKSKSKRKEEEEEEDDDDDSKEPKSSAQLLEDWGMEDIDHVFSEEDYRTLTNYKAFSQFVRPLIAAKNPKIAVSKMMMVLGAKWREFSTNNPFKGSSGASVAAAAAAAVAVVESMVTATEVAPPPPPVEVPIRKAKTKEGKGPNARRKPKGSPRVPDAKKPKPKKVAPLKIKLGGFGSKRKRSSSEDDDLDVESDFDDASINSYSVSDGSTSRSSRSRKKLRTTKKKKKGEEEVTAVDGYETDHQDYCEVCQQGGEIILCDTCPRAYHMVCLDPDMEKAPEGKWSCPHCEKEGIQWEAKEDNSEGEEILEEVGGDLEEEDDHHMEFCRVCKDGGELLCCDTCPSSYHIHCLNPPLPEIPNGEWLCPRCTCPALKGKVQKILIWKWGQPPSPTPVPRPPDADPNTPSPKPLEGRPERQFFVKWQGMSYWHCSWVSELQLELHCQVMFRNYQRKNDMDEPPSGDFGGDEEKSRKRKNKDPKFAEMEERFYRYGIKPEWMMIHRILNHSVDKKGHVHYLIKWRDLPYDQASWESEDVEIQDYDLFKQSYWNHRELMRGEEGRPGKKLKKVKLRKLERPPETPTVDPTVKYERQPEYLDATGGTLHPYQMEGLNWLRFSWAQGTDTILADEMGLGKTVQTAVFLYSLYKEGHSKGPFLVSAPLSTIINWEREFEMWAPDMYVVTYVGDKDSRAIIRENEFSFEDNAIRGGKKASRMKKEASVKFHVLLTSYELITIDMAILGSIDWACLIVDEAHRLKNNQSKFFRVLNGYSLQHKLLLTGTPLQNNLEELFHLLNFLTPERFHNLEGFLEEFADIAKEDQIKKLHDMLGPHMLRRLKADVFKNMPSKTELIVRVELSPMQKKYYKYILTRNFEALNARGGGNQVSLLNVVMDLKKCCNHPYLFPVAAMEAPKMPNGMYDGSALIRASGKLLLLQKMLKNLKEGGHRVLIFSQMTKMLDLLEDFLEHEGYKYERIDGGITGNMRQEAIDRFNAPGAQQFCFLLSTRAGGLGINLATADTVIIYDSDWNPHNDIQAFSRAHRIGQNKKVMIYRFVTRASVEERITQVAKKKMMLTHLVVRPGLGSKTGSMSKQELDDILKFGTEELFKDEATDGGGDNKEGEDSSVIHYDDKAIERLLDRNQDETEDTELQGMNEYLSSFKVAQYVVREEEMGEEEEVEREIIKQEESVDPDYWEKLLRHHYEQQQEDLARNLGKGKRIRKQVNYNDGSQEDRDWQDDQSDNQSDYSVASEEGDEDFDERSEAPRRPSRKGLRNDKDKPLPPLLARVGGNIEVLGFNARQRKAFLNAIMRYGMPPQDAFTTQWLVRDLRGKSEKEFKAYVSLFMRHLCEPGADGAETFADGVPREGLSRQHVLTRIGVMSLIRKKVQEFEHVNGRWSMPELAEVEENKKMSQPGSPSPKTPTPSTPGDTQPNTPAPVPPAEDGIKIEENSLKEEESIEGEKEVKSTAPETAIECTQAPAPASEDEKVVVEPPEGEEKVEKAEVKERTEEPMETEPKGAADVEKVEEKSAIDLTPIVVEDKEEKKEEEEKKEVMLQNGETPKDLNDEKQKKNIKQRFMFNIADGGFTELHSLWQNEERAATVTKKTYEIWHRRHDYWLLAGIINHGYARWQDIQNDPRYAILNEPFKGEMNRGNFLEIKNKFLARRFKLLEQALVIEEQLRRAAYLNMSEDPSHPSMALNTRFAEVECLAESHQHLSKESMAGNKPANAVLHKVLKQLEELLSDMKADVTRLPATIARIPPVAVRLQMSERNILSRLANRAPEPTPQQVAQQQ

Kd [1]	Kd [2]	Kd [3]	Kd [4]	Kd [5]	Kd [6]	Kd [7]	Compound
> 30 µM (inactive)	> 30 µM (inactive)	> 30 µM (inactive)	> 30 µM (inactive)	> 30 µM (inactive)	> 30 µM (inactive)	> 30 µM (inactive)	CCN1CCN(Cc2ccc(-c3cc4c(N[C@H](C)c5ccccc5)ncnc4[nH]3)cc2)CC1 [AEE-788]
> 30 µM (inactive)	> 30 µM (inactive)	> 30 µM (inactive)	> 30 µM (inactive)	> 30 µM (inactive)	> 30 µM (inactive)	> 30 µM (inactive)	CC[C@H](Nc1ncnc2[nH]cnc12)c1nc2cccc(F)c2c(=O)n1-c1ccccc1 [IDELALISIB]
> 30 µM (inactive)	> 30 µM (inactive)	> 30 µM (inactive)	> 30 µM (inactive)	> 30 µM (inactive)	> 30 µM (inactive)	> 30 µM (inactive)	O=C(O)[C@]1(Cc2cccc(Nc3nccs3)n2)CC[C@@H](Oc2cccc(Cl)c2F)CC1 [MK-5108]
> 30 µM (inactive)	> 30 µM (inactive)	–	> 30 µM (inactive)	> 30 µM (inactive)	–	> 30 µM (inactive)	OCCn1cc(-c2cnc3nnn(Cc4ccc5ncccc5c4)c3n2)cn1 [PF-04217903]
0.003 µM	> 30 µM (inactive)	–	> 30 µM (inactive)	> 30 µM (inactive)	–	> 30 µM (inactive)	CCc1cnn2c(NCc3ccc[n+]([O-])c3)cc(N3CCCC[C@H]3CCO)nc12 [DINACICLIB]
> 30 µM (inactive)	> 30 µM (inactive)	–	> 30 µM (inactive)	–	–	0.801 µM (active)	Cc1nc(N)sc1-c1ccnc(Nc2ccc(N3CCOCC3)cc2)n1 [CYC-116]
> 30 µM (inactive)	> 30 µM (inactive)	–	–	–	–	–	CN1CCN(c2ccc3nc(-c4c(N)c5c(F)cccc5[nH]c4=O)[nH]c3c2)CC1 [DOVITINIB]
> 30 µM (inactive)	> 30 µM (inactive)	–	> 30 µM (inactive)	–	–	0.476 µM (active)	Cc1cc(Nc2cc(N3CCN(C)CC3)nc(/C=C/c3ccccc3)n2)n[nH]1 [ENMD-2076]
> 30 µM (inactive)	> 30 µM (inactive)	–	> 30 µM (inactive)	> 30 µM (inactive)	> 30 µM (inactive)	> 30 µM (inactive)	Cc1ccc(NC(=O)c2ccc(CN3CC[C@H](N(C)C)C3)c(C(F)(F)F)c2)cc1Nc1nccc(-c2cncnc2)n1 [BAFETINIB]
–	> 30 µM (inactive)	> 30 µM (inactive)	> 30 µM (inactive)	> 30 µM (inactive)	> 30 µM (inactive)	> 30 µM (inactive)	C[C@@H](c1ccc2nccn2c1)n1nnc2ncc(-c3cnn(C)c3)nc21 [SAVOLITINIB]

The next lines start with the compound.

Compound	Kd [1]	Kd [2]	Kd [3]	Kd [4]	Kd [5]	Kd [6]	Kd [7]
Cn1ncc(Cl)c1-c1cc(C(=O)N[C@H](CN)Cc2cccc(F)c2)sc1Cl [AFURESERTIB]	> 30 µM (inactive)	> 30 µM (inactive)	> 30 µM (inactive)	> 30 µM (inactive)	4.73 µM (active)	> 30 µM (inactive)	> 30 µM (inactive)
COC(=O)N[C@@H](C)CNc1nccc(-c2cn(C(C)C)nc2-c2cc(Cl)cc(NS(C)(=O)=O)c2F)n1 [ENCORAFENIB]	> 30 µM (inactive)	> 30 µM (inactive)	> 30 µM (inactive)	> 30 µM (inactive)	> 30 µM (inactive)	> 30 µM (inactive)	> 30 µM (inactive)
Cc1cc(-c2cc(O)ccc2Cl)cc2nnc(Nc3ccc(OCCN4CCCC4)cc3)nc12	> 30 µM (inactive)	> 30 µM (inactive)	0.002 µM (active)	> 30 µM (inactive)	> 30 µM (inactive)	> 30 µM (inactive)	> 30 µM (inactive)
CCCS(=O)(=O)Nc1ccc(F)c(C(=O)c2c[nH]c3ncc(-c4ccc(Cl)cc4)cc23)c1F [VEMURAFENIB]	> 30 µM (inactive)	> 30 µM (inactive)	> 30 µM (inactive)	> 30 µM (inactive)	> 30 µM (inactive)	> 30 µM (inactive)	> 30 µM (inactive)
CNS(=O)(=O)Nc1nccc(Cc2c(C)c3ccc(Oc4ncccn4)cc3oc2=O)c1F [AVUTOMETINIB]	> 30 µM (inactive)	> 30 µM (inactive)	> 30 µM (inactive)	> 30 µM (inactive)	> 30 µM (inactive)	> 30 µM (inactive)	> 30 µM (inactive)
Cc1cn(-c2cc(NC(=O)c3ccc(C)c(Nc4nccc(-c5cccnc5)n4)c3)cc(C(F)(F)F)c2)cn1 [NILOTINIB]	> 30 µM (inactive)	> 30 µM (inactive)	–	–	–	–	–
C[C@@H](Nc1cc(F)cc(F)c1)c1cc(C(=O)N(C)C)cc2c(=O)cc(N3CCOCC3)oc12 [AZD-8186]	–	> 30 µM (inactive)	> 30 µM (inactive)	> 30 µM (inactive)	> 30 µM (inactive)	> 30 µM (inactive)	> 30 µM (inactive)
C=CC(=O)N1CCC(Oc2cc3c(Nc4ccc(Cl)c(Cl)c4F)ncnc3cc2OC)CC1 [POZIOTINIB]	> 30 µM (inactive)	–	> 30 µM (inactive)	> 30 µM (inactive)	> 30 µM (inactive)	> 30 µM (inactive)	> 30 µM (inactive)
O=C(Nc1cccc(Cl)c1)Nc1ncc(CCNc2ncnc3ccsc23)s1 [SNS-314]	> 30 µM (inactive)	> 30 µM (inactive)	–	> 30 µM (inactive)	–	–	> 30 µM (inactive)
CNC(=O)c1ccc(-c2cnc3ncc(Cc4ccc5ncccc5c4)n3n2)cc1F [CAPMATINIB]	–	> 30 µM (inactive)	> 30 µM (inactive)	> 30 µM (inactive)	> 30 µM (inactive)	> 30 µM (inactive)	> 30 µM (inactive)
CNC(=O)c1ccc(C)c(-n2c(C)cc(OCc3ccc(F)cc3F)c(Br)c2=O)c1 [PH-797804]	–	> 30 µM (inactive)	> 30 µM (inactive)	> 30 µM (inactive)	–	> 30 µM (inactive)	> 30 µM (inactive)
Nc1nc(N)c2nc(-c3cccc(O)c3)c(-c3cccc(O)c3)nc2n1 [TG100-115]	> 30 µM (inactive)	> 30 µM (inactive)	–	–	–	–	–
CCn1c(-c2nonc2N)nc2c(C#CC(C)(C)O)ncc(OC[C@H]3CCCNC3)c21 [GSK-690693]	> 30 µM (inactive)	> 30 µM (inactive)	–	–	–	–	–
